# Test results taken from patent US6008188A, “Cytokine potentiator and pharmaceutical formulation for cytokine administration” (Kanebo Limited, priority 1994, dated 1999).
# Like-named read-outs stand apart in the source and are kept apart here.
# Experiments:
# [1] = test system: Normal human fibroblasts [Detroit-551 (ATCC CCL 110)]; assay: Response to βFGF: procollagenase production by normal human fibroblasts Detroit-551 (Test Examples 4-10); type: cell-based; conditions: for activity at 3000 µM / activity at 1000 µM: Homo sapiens, Detroit 551, 96 h, read-out: Response to βFGF Increment; for Procollagenase Production: mean ± SD, n = 3
# Procedure: (§1) In the following tests, the procollagenase production was quantified in terms of the collagenase activity as obtained through activation with trypsin.
# (§2) It is known that βFGF promotes procollagenase production. In the following tests, therefore, the βFGF activity increment as attained by the compound added was calculated from the procollagenase production, relative to the control using purified water in place of the test compound.
# (§3) Normal human fibroblasts [Detroit-551 (ATCC CCL 110) as prepared from the skin of a person] were suspended at a cell density of 1×10^5 cells/ml in the MEM medium, comprising 10% (V/V) FBS, 0.1% (W/V) (as final concentration) of enzymatic hydrolysate of lactalbumin (produced by Sigma Co.), 1% (V/V) non-essential amino acids and 1 mM sodium pyruvate (both produced by Dai-Nippon Pharmaceutical Co.). The suspended cells were seeded into each well of a 12-well plate in an amount of 0.8 ml/well (corresponding to 8×10^4 cells/well) and incubated in a saturated aqueous vapor with 5% CO2 at 37uC.
# A cytokine activity enhancer (ethanolamine) as obtained in Example 3 mentioned below was diluted with an MEM medium containing 0.6% (V/V) FBS, 0.1% (W/V) (as final concentration) of enzymatic hydrolysate of lactalbumin, 1% (V/V) non-essential amino acids and 1 mM sodium pyruvate, to be 1 mM, and this was used as a solution to be added to the incubated cells.
# (§4) After having been incubated for 24 hours, the culture medium was removed from the plate by suction, and the cells remained were washed twice with the MEM medium containing 0.6% (V/V) (as final concentration) of FBS. Then, the cells were fed with 0.8 ml of the solution prepared above, and were incubated for 4 days.
# After the 4 days incubation, the culture medium was removed from the plate by suction, and the cells were fed with 0.8 ml of the MEM medium containing 3 ng/ml βFGF, 0.6% (V/V) FBS, 0.1% (W/V) (as final concentration) of enzymatic hydrolysate of lactalbumin, 1% (V/V) non-essential amino acids and 1 mM sodium pyruvate, and were incubated for 3 days to obtain a culture supernatant.
# Next, in the same manner as in Test Example 1, procollagenase was recovered from the CM-Sepharose CL-6B (trade name), and the amount of procollagenase thus collected was measured.
# A cytokine activity enhancer (N-methylethanolamine) as obtained in Example 4 to be mentioned hereinunder was tested for the βFGF activity increment, in the same manner as in Test Example 4.
# as §3, with “collected” for “prepared”, “medium (hereinafter referred to as MEM2 medium),” for “medium,”, “1% (V/V)” for “0.1% (W/V)”, “of” for “of enzymatic hydrolysate of lactalbumin (produced by Sigma Co.), 1% (V/V)”, “The” for “The suspended”, “37° C.” for “37uC.”
# A cytokine activity enhancer (Diisopropanolamine) as obtained in Example 5 mentioned below was diluted with the MEM2 medium containing 0.6% (V/V) FBS to be 3 mM, and this was used as a solution to be added to the incubated cells.
# as §4, with “the MEM2” for “the MEM”, “prepared above” for “prepared above,”, “for 2” for “for 4”
# After the 2 days incubation, the culture was removed by filtration under suction, and 0.8 ml of the solution was again added to the remaining cells, which were then incubated for 2 days. Thus, the cells were incubated for 4 days in total. […]
# [2] = test system: Normal human fibroblasts [CCD45SK (ATCC CRL 1506)]; assay: Response to βFGF: procollagenase production by normal human fibroblasts CCD45SK (Test Examples 1-3); type: cell-based; conditions: Test Example 3, 1 mM, 10 ng/ml βFGF
# Procedure: as §1, §2
# Normal human fibroblasts [CCD45SK (ATCC CRL 1506) as prepared from the skin of a person] were suspended at a cell density of 1×10^5 cells/ml in the MEM medium, comprising 10% (V/V) FBS and 1% (V/V) non-essential amino acids (produced by Dai-Nippon Pharmaceutical Co.). The suspended cells were seeded into each well of a 12-well plate in an amount of 0.8 ml/well (corresponding to 8×10^4 cells/well) and incubated in a saturated aqueous vapor with 5% CO2 at 37° C. […]
# as §4, with “with an” for “with the”, “0.6% (v/v)” for “0.6% (V/V)”, “prepared above added to the cells, which” for “prepared above, and”, “for 2” for “for 4”
# After the 2 days incubation, the culture medium was removed from the plate by suction, and the cells were fed with 0.8 ml of the solution and were further incubated for 2 days. This operation was repeated once again. Thus, the cells were processed in the medium containing the cytokine activity enhancer for 6 days in total.
# After the above-mentioned process, the culture medium was removed from the plate by suction, and the cells were fed with 0.8 ml of an MEM medium containing 3 ng/ml of βFGF (produced by Boehringer Manheim Co.) and 0.6% (V/V) FBS, and were incubated for 3 days to obtain a culture supernatant.
# 3.5 ml of 10 mM Tris-HCl buffer [adjusted at pH 7.8 at 4° C., containing 1 mM calcium chloride and 0.05% (W/V) Brij-35] was added to 500 μl of the thus-obtained culture supernatant, and applied to CM-Sepharose CL-6B (trade name, produced by Pharmacia Co., having a bed volume of 0.5 ml) as previously equilibrated with the same buffer.
# Next, the inhibitor was removed through treatment with 0.5 ml of the same buffer as above but containing 125 mM sodium chloride (4 times in all, 2 ml of the buffer was used in total), and the procollagenase was recovered through treatment with 0.5 ml of the same buffer as above but containing 500 mM sodium chloride (4 times in all, 2 ml of the buffer was used in total). This was used as a test sample.
# The test sample was suitably diluted with a buffer for measurement (mentioned above), 25 μl of the thus-diluted sample was mixed with 25 μl of the buffer, 20 μl of a trypsin solution (as prepared by adding trypsin, Type 12 (produced by Sigma Co.) to the buffer at a concentration of 1 mg/ml) was added thereto, and this was incubated at 35° C. for 5 minutes. Then, 30 μl of a soybean trypsin inhibitor solution (as prepared at a concentration of 3 mg/ml, using the buffer) was added to this to thereby inactivate the trypsin. The resulting solution is designated collagenase solution.
# Using type I collagen as labeled with fluorescein isothiocyanate (hereinafter referred to as FITC) (this is an acetic acid solution of FITC-collagen having a concentration of 1 mg/ml; produced by Cosmo-Bio Co.), as a substrate solution, the collagenase activity (unit/ml) of the solution was measured according to the method of Nagai et al. (see Inflammations, Vol. 4, No. 2, p. 123, 1984). […] The procollagenase production (unit/ml of culture medium) was thus obtained and referred to as X1.
# healthy panelists = test system: healthy panelists
# Procedure: Aqueous solutions of N-methyl-L-serine, ethanolamine and N-methylethanolamine that had been adjusted to have a pH 7 with hydrochloric acid were used as test samples. These test samples were applied to 19 healthy panelists.
# One hour and 24 hours after the removal of the patch, the condition of the skin of each panelist was observed.
# [3] = test system: Normal human fibroblasts [CCD45SK (ATCC CRL 1506)]; assay: Response to TGF-β1: TIMP production by normal human fibroblasts (Test Examples 12-13); type: cell-based
# Procedure: Normal human fibroblasts [CCD45SK (ATCC CRL 1506) as prepared from the skin of a person] were suspended at a cell density of 1×10^5 cells/ml in the MEM medium, comprising 10% (V/V) FBS and 1% (V/V) non-essential amino acids (produced by Dai-Nippon Pharmaceutical Co.). The suspended cells were seeded into each well of a 12-well plate in an amount of 0.8 ml/well (corresponding to 8×10^4 cells/well) and incubated in a saturated aqueous vapor with 5% CO2 at 37° C.
# [4] = test system: Japanese native, male house rabbits
# Procedure: Aqueous solutions of N-methyl-L-serine, ethanolamine and N-methylethanolamine that had been adjusted to have a pH 7 with hydrochloric acid were used as test samples.
# Using Japanese native, male house rabbits (body weight: about 3 kg), the test samples were tested according to the above-mentioned the Draize method.
# Precisely, the back of each rabbit was shaven and rubbed to form a scratched site (scratched skin). An adhesive tape for patch test (1.2×1.6 cm; Ribbon Aid, registered trade mane, produced by River Tape Chemicals Co.) as wetted with 0.1 ml of water, or 0.1 ml of an aqueous 1% (W/V) solution of the test compound was stuck onto the scratched skin and the normal skin. […] In addition, 48 hours after the peeling of the tape, the condition of the skin was also observed.
# The scores as referred to in Table 21 were obtained, and the primary stimulation score was calculated according to the following equation.
# Primary Stimulation Score=[(A+B)/2]+[(C+D)/2]+[(E+F)/2]+[(G+H)/2]
# Next, from the primary stimulation scores, obtained was the degree of stimulation with N-Methyl-L-Serine or Ethanolamine or N-Methylethanolamineaccording to the criteria shown in Table 22 below.
# [5] = test system: Japanese native, male house rabbits; remark: listed apart in the source
# Procedure: Aqueous solutions of N-Methyl-L-Serine, Ethanolamine and N-Methylethanolamine that had been adjusted to have a pH of 7 with hydrochloric acid were used as test samples.
# Using Japanese native, male house rabbits (body weight: about 3 kg), the test samples were tested according to the Draize method (see Appraisal of the Safety of Chemicals in Foods, Drugs and Cosmetics, p. 46, 1959, edited and published by the Deitorial Committee, Association of Food and Drug Officials of U.S.A.).
# 24 hours after the last application, the tested area of each rabbit was checked to score the erythema, edema, scab and rhagades, if any, formed in the area.
# The erythema score, the edema score, the scab score, and the rhagades score as referred to in Table 17 were summed up to obtain the cumulative stimulation score.
# Next, from the cumulative stimulation scores, obtained were the degrees of stimulation with N-Methyl-L-Serine, Ethanolamine and N-Methylethanolamine,according to the criteria shown in Table 18 below.
# IFN = conditions: cited from earlier work
# [6] = Test Examples 6-10, 3 mM, 4 days, 3 ng/ml βFGF, MEM2 medium, control = 100
# [7] = Test Examples 6-10, 3 mM, 4 days, 3 ng/ml βFGF, MEM2 medium
# [8] = Test Examples 4-5, 1 mM, 4 days, 3 ng/ml βFGF
smiles,measurement,setting,value
"CC(N)CO (racemic) [Example 6, D,L-2-Amino-1-Propanol]",activity at 3000 µM,[1]; [6],380%
same,Procollagenase Production,[1]; [7],33 ± 4.7 unit/ml
"OCCNCCO [Example 2, diethanolamine]",activity at 1000 µM,"[2]; Homo sapiens, Fibroblast, control = 100, read-out: Response to βFGF Increment",190%
same,Procollagenase Production,"[2]; mean ± SD, n = 3",14 ± 1.3 unit/ml
"NCCO [Example 3, ethanolamine]",activity at 1000 µM,[1],180%
same,Procollagenase Production,[1]; [8],21 ± 1.3 unit/ml
same,panelists with erythema,"healthy panelists; 0.05 ml of aqueous 1% (W/V) solution, 24 hours closed patch, 1 hour and 24 hours after removal, 19 panelists",only one panelists had minor erythema
same,activity at 1000 µM,"[3]; Homo sapiens, Fibroblast, 144 h, read-out: Response to TGF-β1 Increment",160%
same,TIMP Production,"[3]; Test Example 13, 1 mM, 4 days, supernatant 6 days after TGF-β1, mean ± SD, n = 3",250 ± 9.0 unit/ml
same,Primary Stimulation Score,"[4]; 0.1 ml of aqueous 1% (W/V) solution, patch 24 hours, normal and scratched skin",0
same,stimulation to the skin (in words),[4]; aqueous 1% (W/V) solution,low
same,Cumulative Stimulation Score,"[5]; 0.1 ml of aqueous 0.1% (W/V) solution, once a day for 4 days",0
same,cumulative stimulation to the skin (in words),[5]; aqueous 0.1% (W/V) solution,low
"CNCCO [Example 4, N-methylethanolamine]",activity at 1000 µM,"[1]; Test Examples 4-5, 1 mM, 4 days, 3 ng/ml βFGF, control = 100",180%
same,Procollagenase Production,[1]; [8],12 ± 1.7 unit/ml
same,panelists with erythema,healthy panelists; in vivo,only one panelists had minor erythema
same,Primary Stimulation Score,"[4]; rabbit, in vivo",0.25
same,stimulation to the skin (in words),"[4]; rabbit, in vivo",low
same,cumulative stimulation to the skin (in words),"[5]; rabbit, in vivo",low
"CC(O)CNCC(C)O (stereo not shown) [Example 5, Diisopropanolamine]",activity at 3000 µM,[1]; [6],760%
same,Procollagenase Production,[1]; [7],65 ± 13 unit/ml
"CCC(N)CO (stereo not shown) [Example 7, 2-Amino-1-Butanol]",activity at 3000 µM,[1]; [6],190%
same,Procollagenase Production,[1]; [7],22 ± 2.4 unit/ml
"NCC(O)CN [Example 8, 1,3-Diamino-2-Propanol]",activity at 3000 µM,[1]; [6],150%
same,Procollagenase Production,[1]; [7],18 ± 0.95 unit/ml
"CCC(O)CN (stereo not shown) [Example 9, 1-Amino-2-Butanol]",activity at 3000 µM,[1]; [6],290%
same,Procollagenase Production,[1]; [7],24 ± 2.3 unit/ml
"CC1(C)[C@@H](O[C@H]2O[C@H](C(=O)O)[C@@H](O)[C@H](O)[C@H]2O[C@@H]2O[C@H](C(=O)O)[C@@H](O)[C@H](O)[C@H]2O)CC[C@]2(C)[C@H]3C(=O)C=C4[C@@H]5C[C@@](C)(C(=O)O)CC[C@]5(C)CC[C@@]4(C)[C@]3(C)CC[C@@H]12 [Glychrrhizic acid, glycyrrhizic acid]",IFN-producing activity,IFN,has an IFN-producing activity
